Reference: patent US20220387621A1, “TARGETED DELIVERY OF NANOCARRIER-CONJUGATED DOXORUBICIN” (priority 2019, published 2022)

Assays:
[1] = test system: murine B-lymphoma line A20; assay: 48-hour viability assay of A20 cells; format: cell-based; conditions: Mus musculus
Protocol: (§1) For 24-48 hr assessments, cells were seeded at 5000 cells per well in a 96-well plate under serial drug dilutions. For delayed drug effect viability, cells were seeded at 500,000 cells per well in a 6-well plate on day 0 and treated with drug for 24 hrs, after which cells were washed ×2 and plated in normal cell media without drug. Viability was assessed using Cell Titer Glo (Promega #G7573) according to manufacturer's protocol. Luminescence was measured using BioTek Synergy HT plate reader. EC50s were calculated using nonlinear fit regression analysis in GraphPad Prism 8. Apoptosis assessment was conducted with BD Biosciences reagent (#559763) using Attune NxT flow cytometer.

[2] = test system: BJAB, Farage, SU-DHL4, and Riva cells; assay: Delayed drug effect viability: 24 h drug, washout, viability tracking over 6 days; format: cell-based, human
Protocol: as §1

BJAB cells = assay: Fluorescent confocal microscopy, nuclear colocalization in BJAB; format: cell-based, human; conditions: 24 hours
Protocol: Cells were seeded at 50,000 cells per well in a 12-well plate and treated with either vehicle or drug. BJAB cells were fixed with 4% paraformaldehyde and permeabilized with 1% NP40 followed by staining for DAPI (Thermofisher Scientific, Waltham, Mass., USA). Cells were then imaged (60×) using a Leica DM4 B microscope. HEK293 cells had the nucleus stained for DAPI (Thermo #R37605) or GFP (Thermo #C10602) per the manufacturer protocol. Cells were live-imaged (63× objective) using Leica Sp5 confocal microscop and images collected and analyzed using ImageJ software.

in vivo = conditions: mouse
Protocol: (§2) All animal studies were performed under the approval of the University of Miami Institutional Animal Care and Use committee. […] For tumor-bearing experiments, DLBCL PDX DFBL-75549 tumor model was obtained and engrafted mice through surgical dorsal tumor implantation. Tumor volume (TV) was measured by ultrasound (Vevo 3100, Visualsonics) with a predetermined survival endpoint of TV>1500 mm3. A continuous body weight loss of >20% was also a predetermined survival endpoint. For dose-finding experiments, mice were dosed intravenously on day 0, day 14, and day 24 and observed for changes in body weight. For R-nanoCHOP vs. R-CHOP tumor-bearing experiments, mice were dosed with all drugs intravenously once on day 1 of every 21 days, with exception to Prednisone administered orally. The following drug doses were used: Rituximab 20 mg/kg, Cyclophosphamide 40 mg/kg, Doxorubicin 3.3 mg/kg, CDT 33 mg/kg, Vincristine 0.5 mg/kg, Prednisone 0.2 mg/kg.
Formalin-fixed paraffin-embedded tissue sections, produced per standard protocols, were used to make H&E-stained and immunohistochemistry (IHC) pathology slides. Antibodies were used as per above, when applicable.

DLBCL PDX tumor = conditions: mouse, in vivo
Protocol: as §2

BJAB and Farage cells = assay: 48-hour viability with TFRC overexpression, holo-TF competition or dynasore; format: cell-based, human; conditions: 15 μM, 50 μM
Protocol: as §1
Human TFRC cDNA (HsCD00044911) was purchased from the DNASU Plasmid Repository (Tempe, Ariz., USA) and was subsequently cloned into pLVX-IRES-ZsGreenl vector (Clontech Laboratories, Mountain View, Calif., USA). Recombinant plasmids, together with packaging/envelope plasmids psPAX2 and pMD2.G (Addgene, Cambridge, Mass., USA), were co-transfected into HEK293 cells using Lipofectamine 3000 (Invitrogen, Carlsbad, Calif., USA) following manufacturer's instructions. Cell media was changed at 24 hours after transfection, and viral particles collected at 48 hours and 72 hours post transfection.
For viral transduction, BJAB and Farage cells were infected with harvested virus by spinoculation. […]

SMILES: COc1cccc2c1C(=O)c1c(O)c3c(c(O)c1C2=O)C[C@@](O)(C(=O)CO)C[C@@H]3O[C@H]1C[C@H](N)[C@H](O)[C@H](C)O1 [Dox, doxorubicin]
- EC50 [1]: 10.6 nM
- cell viability over time-course after washout [2]: seen only with much higher doses
- nuclear colocalization (BJAB cells): similar
- MTD (in vivo; male, NOD scid gamma (NSG), iv): 3.3 mg/kg
- weight loss at MTD (in vivo): ~20%
- anti-tumor efficacy (OS and tumor volume) (DLBCL PDX tumor): relatively weak antitumor activity
- body weight after two additional doses (DLBCL PDX tumor): irreversible weight loss
- body weight nadir (DLBCL PDX tumor): 8 days
- return to starting weight (DLBCL PDX tumor): 10 to 14 days

SMILES: O=C(N/N=C/c1ccc(O)c(O)c1)c1cc2ccccc2cc1O [dynasore, Dynasore]
- viability, single agent (BJAB and Farage cells): negatively affected viability
